In paper PMC6890839, “The Antimalarial Chloroquine Reduces the Burden of Persistent Atrial Fibrillation” (Frontiers in Pharmacology, 2019):

Tested on: T1, Kir3.1 and Kir3.4 (IKACh)
T1 construct: gene KCNJ3; heterotetramer
Test: whole-cell patch clamp, HEK293, block of Ba-sensitive current
Type: cell-based
Conditions: -140 mV step from -20 mV holding; about 24 °C; bath pH 7.4, 50 mM KCl; pipette 0.1 mM GTP; Hill slope -0.48

IC50: 1200 nM
SMILES: CCN(CC)CCCC(C)Nc1ccnc2cc(Cl)ccc12 (stereo not shown) [chloroquine]
